According to patent US9199983B2, “3-aryl-6-aryl-[1,2,4]triazolo[4,3-α]pyridines as inhibitors of cell proliferation and the use thereof” (priority 2010, dated 2015):
Structures can show the parent of a compound that is named as a salt.

Experiments:
[1] = test system: liver cancer cell line SMMC7721; experiment: MTT cancer cell cytotoxicity assay, SMMC7721; type: cell-based, human; conditions: Homo sapiens, SMMC-7721, SMMC7721 cells, 48-72 h
In short: (§1)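 Seeding: HepG2 and A549 at 3000, SMMC7721 at 5000, B16F10 at 2000 cells/well, attached overnight. Compounds (10 μM to 1 nM, triplicate) were applied for 48-72 h at 37 °C, followed by 4 h MTT. A550 minus A660 was fitted for IC50, with untreated wells as maximum and reference-drug total kill as background.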

[2] = test system: mouse melanoma cell line B16F10; experiment: MTT cancer cell cytotoxicity assay, B16F10; type: cell-based; conditions: Mus musculus, B16-F10, B16F10 cells, 48-72 h
Method: Identification of 3-(2-methoxyphenyl)-6-(4-methoxyphenyl)-[1,2,4]triazolo[4,3-a]pyridine and analogs as inhibitors of cell proliferation that were evaluated with standard MTT cancer cell cytotoxicity assay (IC50)
Human lung cancer cell line A549, breast cancer cell line T47D, liver cancer cell lines HepG2 and SMMC7721 as well as a mouse melanoma cell line B16F10 were used in the study. The cells were cultured in corresponding growth media recommended by American Type Culture Collection (ATCC) with the supplementation of penicillin G (100 U/ml)/streptomycin (100 µg/ml), and 10% fetal bovine serum (Hangzhou Sijiqing Biological Engineering Materials, Co., Ltd. China) at 37° C. in a humidified atmosphere containing 5% CO2. Cells at about 80% confluency were harvested by trypsinization. Cells were centrifuged, re-suspended in fresh growth media and counted. Corresponding numbers of cells were seeded to 96-well cell culture plates (HepG2 cell, T-47D and A549 cells at 3000 cells/well, SMMC-7721 cells at 5000 cells/well and B16F10 cells at 2000 cells/well) in a total volume of […]. Cells were incubated in CO2 incubator over night to allow the cells to attach. In next day, […] of medium containing testing (from 10 μM to 1 nM) or reference compounds was added to each well of the cells. Media without compound were used as 100% control. Cells were treated with each concentration of compounds in triplicates to ensure data accuracy. Cells were incubated with compounds in CO2 incubator for an additional 48-72 h at 37° C. After incubation, cells were removed from the CO2 incubator and […] of 5 mg/ml MTT (3-(4,5-dimethylthiazole-2-yl)-2,5-diphenyltetrazoliumbromide, Sigma) solution in PBS was added to each well. Cells were returned to CO2 incubator and incubated for additional 4 h. After the incubation, media were removed by aspiration and […] DMSO was added to each well. Plates were sealed with aluminum foil and shaked mildly on an orbital shaker for 10 min at room temperature. The absorption was measured at 550 nm with a plate reader (Varioskan Flash, Thermo Fisher Scientific) with 660 nm reading used as background control. The relative absorbance readings were calculated by subtracting readings at 660 nm from that at 550 nm. The relative absorbance was plotted again the concentrations of the testing compounds and the plots were fitted with a one-site lg(IC50) equation using Prism 5 software (GraphPad Software, Inc). The equation used in the curve fitting is as follows: relative absorbance reading=background reading+(maximal reading−brackground reading)/(1+10 ^(compound concentration-log IC50)). The background reading used in the calculation was obtained with 100% cell death using a reference anticancer drug, whereas the maximal reading was obtained in the well with no added compound. The IC50 value calculated from the equation represents the cytotoxic potency of a particular compound.

caspase-3 activation [3] = experiment: Caspase-3 activation (apoptosis induction) in T-47D cells; type: cell-based; conditions: Homo sapiens; T47D cells, 24 h treatment; read-out: EC50 to induce caspase-3 activation, T47D
Method: (§2) Identification of 3-(2-methoxyphenyl)-6-(4-methoxyphenyl)-[1,2,4]triazolo[4,3-a]pyridine and analogs as inducers of apoptosis in solid tumor cells
(§3) Human breast cancer cell line T-47D and lung cancer cell line A549, growing in DMEM/F12+10% FBS media were seeded to a density of 20000 cells/well in 96-well cell culture plate and grew overnight (18-24 h) in CO2 cell culture incubator at 37° C. Next day the medium were removed by aspiration and […] fresh growth media was added to each well followed by […] of growth media containing 10× concentration of reference or testing compounds with 10% DMSO. Twenty four hours later, cell culture plates were centrifuged at 1000 g for 5 min and the supernatant was removed by emptying contents into a reservoir. Fifty μl of Lysis Buffer (10 mM Tris, pH7.5, 0.1M NaCl, 1 Mm EDTA, 0.01% Triton X-100) was added to each well and the plates were incubated with gentle agitation on an orbital shaker at 4° C. for 30 min. The plates were then centrifuged at 1000 g for 10 min at 4° C. and 20 μl of the supernatant was transferred from each well to a corresponding well in a black 384-well. Twenty μl of caspase-3 assay buffer (20 mM PIPES, pH7.4, 4 Mm EDTA and 0.2% CHAPS) containing 20 μM fluorogenic caspase-3 substrate ((Ac-DEVD)2-R110, AnaSpec Cat #60304-5) was added to each well. The samples were mixed by agitation and incubated at 37° C. for 3 h. The fluorescent intensity of each well was read on a fluorescent plate reader (Varioskan Flash, Thermo Fisher Scientific) with excitation wavelength at 496 nm and emission wavelength at 520 nm. The activity of compounds on caspase-3 activation was determined by plotting the relative fluorescent unit (RFU) against the testing concentrations of the compounds. The EC50 values were determined by fitting the above responding curves into Prism sigmoidal dose-response equation (GraphPad Software, Inc).

[4] = test system: breast cancer cell line T47D; experiment: MTT cancer cell cytotoxicity assay, T47D; type: cell-based, human; conditions: Homo sapiens, T47D cells, 48-72 h
In short: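 Human T47D breast cancer cells, cultured per ATCC recommendations with 10% fetal bovine serum and penicillin/streptomycin, were plated at 3000 cells/well in 96-well plates. After overnight attachment they were exposed in triplicate to compounds (10 μM to 1 nM) for 48-72 h. MTT was then added for 4 h and the formazan dissolved in DMSO. Absorbance at 550 nm minus 660 nm was fitted in Prism 5 to give IC50.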

[5] = test system: liver cancer cell line HepG2; experiment: MTT cancer cell cytotoxicity assay, HepG2; type: cell-based, human; conditions: Homo sapiens, HepG2 cells, 48-72 h
In short: as §1

[6] = test system: Human lung cancer cell line A549; experiment: MTT cancer cell cytotoxicity assay, A549; type: cell-based; conditions: Homo sapiens, A549 cells, 48-72 h
In short: as §1

caspase-3 activation [7] = experiment: Caspase-3 activation (apoptosis induction) in A549 cells; type: cell-based; conditions: Homo sapiens, A-549 cells, 24 h treatment, read-out: EC50 to induce caspase-3 activation, A-549
Method: as §2, §3

SMILES | IC50 [1] | IC50 [2] | EC50 (caspase-3 activation [3]) | IC50 [4] | IC50 [5] | IC50 [6] | EC50 (caspase-3 activation [7])
COc1ccc(-c2ccc3nnc(-c4ccccc4OC)n3c2)cc1N [Example 46, 6-(3-Amino-4-methoxyphenyl)-3-(2-methoxyphenyl)-[1,2,4]triazolo[4,3-a]pyridine hydrochloride] | 5.7 nM | 3.7 nM | 23 nM | 9.7 nM | 9.9 nM | 9.4 nM | 
COc1ccc(-c2ccc3nnc(-c4ccccc4OC)n3c2)cc1 [Example 1, 3-(2-Methoxyphenyl)-6-(4-methoxyphenyl)-[1,2,4]triazolo[4,3-a]pyridine] | 13 nM | 36 nM | 55 nM | 37 nM | 28 nM | 35 nM | 83 nM
COc1ccc(-c2ccc3nnc(-c4ccc(C)cc4OC)n3c2)cc1N [Example 52, 6-(3-Amino-4-methoxyphenyl)-3-(2-methoxy-4-methylphenyl)-[1,2,4]triazolo[4,3-a]pyridine] | 1.8 nM | 2.1 nM | 5.4 nM | 2 nM | 2.3 nM | 2.6 nM | 
COc1ccc(-c2ccc3nnc(-c4ccccc4OC)n3c2)cc1C [Example 5, 6-(4-Methoxy-3-methylphenyl)-3-(2-methoxyphenyl)-[1,2,4]triazolo[4,3-a]pyridine] | 11 nM | 37 nM | 76 nM | 40 nM | 32 nM | 11 nM | 93 nM
COc1ccc(-c2ccc3nnc(-c4ccccc4OC)n3c2)cc1Cl [Example 26, 6-(3-Chloro-4-methoxyphenyl)-3-(2-methoxyphenyl)-[1,2,4]triazolo[4,3-a]pyridine] | 12 nM | 23 nM | 240 nM | 52 nM | 23 nM | 33 nM | 32 nM
COc1ccc(-c2ccc3nnc(-c4ccc(Br)cc4OC)n3c2)cc1 [Example 59, 3-(4-Bromo-2-methoxyphenyl)-6-(4-methoxyphenyl)-[1,2,4]triazolo[4,3-a]pyridine] | 3.8 nM | 6.1 nM | 25 nM | 6.6 nM | 7.1 nM | 12 nM | 
COc1ccc(-c2ccc3nnc(-c4ccc(Cl)cc4OC)n3c2)cc1N [Example 50, 6-(3-Amino-4-methoxyphenyl)-3-(4-chloro-2-methoxyphenyl)-[1,2,4]triazolo[4,3-a]pyridine] | 1.3 nM | 1.6 nM | 3.5 nM | 1.1 nM | 1.4 nM | 1.7 nM | 
COc1ccc(-c2ccc3nnc(-c4ccc(Cl)cc4OC)n3c2)cc1 [Example 57, 3-(4-Chloro-2-methoxyphenyl)-6-(4-methoxyphenyl)-[1,2,4]triazolo[4,3-a]pyridine] | 6.7 nM | 1.6 nM | 20 nM | 4.1 nM | 3.4 nM | 3.4 nM | 5 nM
COc1ccc(-c2ccc3nnc(-c4ccc(C)cc4OC)n3c2)cc1 [Example 66, 3-(2-Methoxy-4-methylphenyl)-6-(4-methoxyphenyl)-[1,2,4]triazolo[4,3-a]pyridine] | 3.7 nM | 3.4 nM | 62 nM | 19 nM | 15 nM | 12 nM | 11 nM
COc1ccc(-c2ccc3nnc(-c4ccc(Cl)cc4OC)n3c2)cc1O [Example 89, 3-(4-Chloro-2-methoxyphenyl)-6-(3-hydroxy-4-methoxyphenyl)-[1,2,4]triazolo[4,3-a]pyridine] | > 10000 nM | 1.1 nM | 2.3 nM | 0.84 nM | 1.4 nM | 1.6 nM | 
COc1ccc(-c2ccc3nnc(-c4ccccc4OC)n3c2)cc1O [Example 20, 6-(3-Hydroxy-4-methoxyphenyl)-3-(2-methoxyphenyl)-[1,2,4]triazolo[4,3-a]pyridine] | > 10000 nM | 18 nM | 16 nM | 18 nM | 11 nM | 13 nM | 
COc1ccc(-c2ccc3nnc(-c4ccc([N+](=O)[O-])cc4OC)n3c2)cc1 [Example 70, 3-(2-Methoxy-4-nitrophenyl)-6-(4-methoxyphenyl)-[1,2,4]triazolo[4,3-a]pyridine] | 9.9 nM | 4.4 nM | 22 nM | 13 nM | 22 nM | 6.7 nM | 
COc1ccc(-c2ccc3nnc(-c4ccc(C)cc4OC)n3c2)cc1F [Example 53, 6-(3-Fluoro-4-methoxyphenyl)-3-(2-methoxy-4-methylphenyl)-[1,2,4]triazolo[4,3-a]pyridine] | 8.3 nM | 6.2 nM | 9.1 nM | 6.7 nM | 5.7 nM | 7.4 nM | 
COc1ccc(-c2ccc3nnc(-c4ccc(C)cc4OC)n3c2)cc1O [Example 51, 6-(3-Hydroxy-4-methoxyphenyl)-3-(2-methoxy-4-methylphenyl)-[1,2,4]triazolo[4,3-a]pyridine] | > 10000 nM | 2.1 nM | 2.8 nM | 1.1 nM | 1.1 nM | 4 nM | 
COc1ccc(-c2ccc3nnc(-c4ccc(Cl)cc4OC)n3c2)cc1F [Example 49, 3-(4-Chloro-2-methoxyphenyl)-6-(3-fluoro-4-methoxyphenyl)-[1,2,4]triazolo[4,3-a]pyridine] | 4.6 nM | 4.9 nM | 9.3 nM | 4.5 nM | 3.3 nM | 4.9 nM | 
